Data: patent publication US4166861A, “Pharmacologically active polyphenolic substances” (Inverni della Beffa S.p.A., priority 1976, dated 1979)
Where two headings read alike, the source gives them in different places.

What was measured:
[1] = Triton hyperlipaemia in the rat (plasma cholesterol and triglycerides); assay type: in vivo, Sprague Dawley rats; details: 100 mg/kg i.p. (50 mg/kg immediately after Triton, 50 mg/kg after 4 hours); significant
Procedure: The products under examination were injected intraperitoneally at the dosage of 100 mg./kg. of which 50 mg./kg. immediately after the Triton and 50 mg./kg. after 4 hours. After a further 4 hours the animals were slaughtered and the cholesterol and triglycerides in the plasma were measured.

Toxicity (LD50) = assay type: in vivo; details: for LD50: in vivo
[2] = Choleretic activity in the rat, intraperitoneal administration (bile volume and dry residue); assay type: in vivo, Sprague Dawley rats; details: for Bile Volume 3 Hours after Treatment / Dry Residue 3 Hours after Treatment / increase of the dry residue of the bile in comparison with the basal values / increase of the volume of the bile in comparison with the basal values: 100 mg/kg i.p.; for Bile Volume 3 Hours after Treatment / Dry Residue 3 Hours after Treatment: awake rat; for increase of the dry residue of the bile in comparison with the basal values / increase of the volume of the bile in comparison with the basal values: measured from 1 hour to 4 hours after administration; for choleretic action (in words): Table 2, 100 mg/kg i.p., bile volume and dry residue three hours after treatment
Procedure: (§1) The choleretic activity was determined in accordance with the technique described by R. Lambert in "Surgery of the Digestive System in the Rat" 1965. Sprague Dawley rats of mean weight of 230 g. were used. The products were injected intraperitoneally at the dosage of 100 mg/kg., the volume of the bile and the corresponding dry residue being measured then from 1 hour to 4 hours after administration. […] These increases are significant.
2. Choleretic Activity--Intra-Peritoneal Administration
The choleretic activities of catechin and catechin pentacetyl ferulate were determined in the manner described in paragraph A above.

[3] = Choleretic activity in the rat, oral administration (bile volume and dry residue); assay type: in vivo, Sprague Dawley rats; details: 200 mg/kg per os; for Bile Volume 2 Hours after Treatment / Dry Residue 2 Hours after Treatment / Bile Volume 3 Hours after Treatment / Dry Residue 3 Hours after Treatment: awake rat
Procedure: as §1
1. Choleretic Activity--Oral Administration
The choleretic activities of catechin and epicatechin were determined in the manner described in paragraph A above except that the substances under test were administered per os at the rate of 200 mg./kg.

[4] = Olive oil-induced hyperlipaemia in the rat (plasma triglycerides); assay type: in vivo, Sprague Dawley rats; details: for diminution of the concentration of triglycerides in the plasma in comparison with the controls: 100 mg/kg orally, two treatments, 2 h before and 2 h after olive oil, significant; for Triglycerides: 100 mg/kg per os, controls (water) 171.5±18.6; for hypolipaemic effect (in words): Table 3, 100 mg/kg per os
Procedure: The hyperlipaemic activity was determined in Sprague Dawley rats of mean weight of 160 g., in which hyperlipaemia was induced by means of administration of 20 ml./kg. of olive oil orally in animals which had been fasting for 16 hours. Two treatments were effected with the products under examination (upon groups of 18 animals), the first two hours before the olive oil, the second two hours afterwards. The doses were administered orally and were equal to 100 mg./kg.
3. Hypolipaemic Effect--Effect on Olive Oil-Induced Hyperlipaemia
The hypolipaemic activity of catechin and epicatechin was determined in the manner described in paragraph B1 above.

[5] = Lipidic metabolism in the normally fed rat (plasma free fatty acids); assay type: in vivo, Sprague Dawley rats; details: single dose 100 mg/kg i.p., after two hours; normolipaemic rats; significant
Procedure: The tests were conducted on Sprague Dawley rats of mean weight of 200 g. which were normolipaemic and to which the products had been administered intraperitoneally in a single dose of 100 mg./kg. After two hours the animals were slaughtered and the free fatty acids in the plasma were measured.

[6] = epicatechin compared with catechin

| SMILES | diminution of the concentration of cholesterol in the plasma in comparison with the controls [1] | diminution of the concentration of triglycerides in the plasma in comparison with the controls [1] | Bile Volume 3 Hours after Treatment [2] | Dry Residue 3 Hours after Treatment [2] | increase of the dry residue of the bile in comparison with the basal values [2] | increase of the volume of the bile in comparison with the basal values [2] | choleretic action (in words) [2] | Bile Volume 2 Hours after Treatment [3] | Dry Residue 2 Hours after Treatment [3] | Bile Volume 3 Hours after Treatment [3] | Dry Residue 3 Hours after Treatment [3] | diminution of the concentration of triglycerides in the plasma in comparison with the controls [4] | Triglycerides [4] | hypolipaemic effect (in words) [4] | diminution of the concentration of free fatty acids in the plasma in comparison with the controls [5] | other results |
| --- | --- | --- | --- | --- | --- | --- | --- | --- | --- | --- | --- | --- | --- | --- | --- | --- |
| CC(=O)Oc1cc(OC(C)=O)c2c(c1)O[C@H](c1ccc(OC(C)=O)c(OC(C)=O)c1)[C@@H](OC(C)=O)C2 [Example 4, Catechin pentaacetate] | 16.3% | 23.1% |  |  |  |  |  |  |  |  |  |  |  |  |  |  |
| COc1cc(C=CC(=O)Oc2cc(OC(=O)C=Cc3ccc(OC(C)=O)c(OC)c3)c3c(c2)O[C@H](c2ccc(OC(=O)C=Cc4ccc(OC(C)=O)c(OC)c4)c(OC(=O)C=Cc4ccc(OC(C)=O)c(OC)c4)c2)[C@@H](OC(=O)C=Cc2ccc(OC(C)=O)c(OC)c2)C3)ccc1OC(C)=O [Catechin pentacetylferulate, catechin peracetylferulate] |  |  | 0.88 ± 0.05 mL | 15.6 ± 0.60 mg | 36% | 64% | marked choleretic action |  |  |  |  |  |  |  |  | LD50 i.p. (Toxicity (LD50); i.p.): > 1000 mg/kg |
| Oc1cc(O)c2c(c1)O[C@H](c1ccc(O)c(O)c1)[C@H](O)C2 [Epicatechin, epicatechin] |  |  |  |  | 35% | 38% |  | 1.02 ± 0.07 mL | 18.1 ± 2.0 mg | 0.89 ± 0.09 mL | 16.5 ± 2.13 mg | 42% | 98.6±12.0 mg/100 ml | marked hypolipaemic effect |  | choleretic activity (in words) [3, 6]: markedly higher choleretic activity than catechin; duration of choleretic effect (in words) [3, 6]: the choleretic effect is of longer duration |
| CC1(C)Oc2ccc([C@H]3Oc4cc(O)cc(O)c4C[C@@H]3O)cc2O1 [catechin acetonide] |  |  |  |  |  |  |  |  |  |  |  |  |  |  | 25.8% |  |
| O=C(Oc1cc(OC(=O)c2cccnc2)c2c(c1)O[C@H](c1ccc(OC(=O)c3cccnc3)c(OC(=O)c3cccnc3)c1)[C@@H](OC(=O)c1cccnc1)C2)c1cccnc1 [pernicotinylcatechin] | 21.1% | 28.7% |  |  |  |  |  |  |  |  |  | 27% |  |  | 13.1% |  |
| Oc1cc(O)c2c(c1)O[C@H](c1ccc(O)c(O)c1)[C@@H](O)C2 [Catechin, catechin, reference compound] |  |  | 0.62 ± 0.08 mL | 10.0 ± 4.20 mg |  |  | no statistically significant choleretic effect | 0.84 ± 0.02 mL | 18.2 ± 0.37 mg | 0.81 ± 0.03 mL | 16.6 ± 0.81 mg |  | 120.7±17.6 mg/100 ml | no statistically significant hypolipaemic effect |  | LD50 (Toxicity (LD50); ip, read-out: LD50 i.p.): > 1000 mg/kg; LD50 (Toxicity (LD50); po, per os, read-out: LD50 per os): > 2000 mg/kg |
